# Tests used:
# bovine thymus DNA [1] = test: DNA intercalation analysis by shift of absorption wavelength (bathochromic effect); format: binding; settings: for Absorption wavelength difference: DNA 30 μg/mL versus 0 μg/mL; for intercalation into DNA judged from absorption wavelength shift: Table 2; for DNA0: Absorption wavelength when DNA concentration was 0 μg/mL / DNA30: Absorption wavelength when DNA concentration was 30 μg/mL: compound 10 μg/mL in 0.1 M Tris-HCl, peak top wavelength
# Method: In addition, since the absorption spectrum shifted to the long wavelength side due to intercalation of the compound between base pairs of DNA (bathochromic effect), the shift of the absorption wavelength was measured by mixing DNA and the compound. Specifically, the compounds shown in Table 2 were dissolved in a 0.1 M Tris-HCl buffer solution at 10 μg/mL, and bovine thymus DNA was added thereto at 0 μg/mL or 30 μg/mL to prepare measurement samples. Then, the absorption spectrum of each measurement sample was measured, and the absorption wavelength (peak top wavelength) was determined.
# [2] = Quantum yield and molar absorption coefficient (Table 1); format: physicochemical
# bovine thymus DNA [3] = test: DNA intercalation analysis by fluorescence intensity on mixing with DNA; format: binding; settings: for intercalation into DNA judged from fluorescence intensity: FIG. 4 and Table 1; for Fluorescence intensity ratio (DNA20/DNA0): compound 10 μg/mL in 0.1 M Tris-HCl pH 7.5, DNA 20 μg/mL versus 0 μg/mL
# Method: Since the fluorescence intensity was improved due to intercalation of the compound between base pairs of DNA, the fluorescence intensity was measured by mixing DNA and the compound. First, the compounds shown in Table 1 were dissolved in a 0.1 M Tris-HCl buffer solution (pH 7.5) at 10 μg/mL, and bovine thymus DNA was added thereto at 0 μg/mL, 5 μg/mL, 10 μg/mL or 20 μg/mL to prepare measurement samples. Then, the fluorescence intensity of each measurement sample was measured (excitation wavelength 355 to 536 nm, fluorescence wavelength of 420 to 605 nm). In Table 1, the fluorescence intensity ratio is a ratio (DNA20/DNA0) of the fluorescence intensity (DNA20) when the DNA concentration was 20 μg/mL and the fluorescence intensity (DNA0) when the DNA concentration was 0 μg/mL.
# [4] = system: reactive oxygen species in the brain (right striatum); test: PET measurement of probe accumulation in SNP model rats; format: in vivo, rat; settings: for ratio of radioactivity accumulated amount (SUV) between right striatum (SNP) and left striatum (control): 20 MBq i.v. bolus, 30-45 minutes after administration, FIGS. 2(E) and 2(F)
# Method: Accumulation of [^18F]FHM, [^18F]FPHM and [^11C]HM was analyzed using rats in which reactive oxygen species were produced in the brain (right striatum) to which sodium nitroprusside (SNP) has been administered.
# While rats were anesthetized with 1.5-2.0% isoflurane (dilution gas:oxygen), 4 μL of a 20 nmol/μL SNP solution (saline) was injected into the right striatum of the rat at a rate of 0.8 μL/min using a Hamilton syringe (26 gauge). 4 μL of a saline was injected into the left striatum in the same method. PET measurement was performed on SNP-administered rats (SNP model rats) 60 minutes after SNP administration.
# After transmission measurement was performed for 15 minutes for absorption correction, a bolus of 20 MBq [^18F]FHM, [^18F]FPHM or [^11C]HM was administered from the caudal vein of the rat, and emission measurement was performed for 90 minutes. After PET measurement was completed, the PET accumulation images of the brain 0-15 minutes, 15-30 minutes, 30-45 minutes, 45-60 minutes, 60-75 minutes, and 75-90 minutes after [^18F]FHM, [^18F]FPHM or [^11C]HM was administered were superimposed on the brain CT images. Regions of interest were set on the PET images of the right striatum and the left striatum identified from the X-CT images, and the value normalized according to the body weight of each individual subject and the administered radioactivity amount was used as the amount of [^18F]FHM, […] or […] accumulated at each site (radioactivity accumulated amount (SUV)) (each group, 5 rats).
# In addition, as a control, PET measurement was performed on rats in which only a saline was administered to both the right striatum and the left striatum (control rat) in the same method as above.
# [5] = system: reactive oxygen species in the brain (right striatum); test: Brain fluorescence imaging in SNP model rats; format: in vivo, rat; settings: 5 mg/kg i.v. bolus, brain extracted 1 hour after administration, compared to DHE, FIG. 5
# Method: 4 μL of a 20 nmol/μL SNP solution (phosphate buffered saline (PBS) solution) was injected into the right striatum of the rat at a rate of 0.8 μL/min using a Hamilton syringe (26 gauge). 4 μL of PBS was injected into the left striatum in the same method. A bolus of 5 mg/kg DHE or isopropyl reduced component was administered from the caudal vein of the rat 60 minutes after SNP administration for SNP-administered rats (SNP model rats). The brain was extracted 1 hour after administration and a 20 μm-thick frozen section was prepared. Brain fluorescence images were obtained by a scanner type image analysis device (FLA700: excitation wavelength of 532 nm, filter 580 nm).
DNA0: Absorption wavelength when DNA concentration was 0 μg/mL (bovine thymus DNA [1]) [nm],ε · ϕ (molar absorption coefficient x quantum yield) [2],ϕ: quantum yield [2],Compound,Absorption wavelength difference (bovine thymus DNA [1]) [nm],intercalation into DNA judged from absorption wavelength shift (bovine thymus DNA [1]),DNA30: Absorption wavelength when DNA concentration was 30 μg/mL (bovine thymus DNA [1]) [nm],intercalation into DNA judged from fluorescence intensity (bovine thymus DNA [3]),Fluorescence intensity ratio (DNA20/DNA0) (bovine thymus DNA [3]),ratio of radioactivity accumulated amount (SUV) between right striatum (SNP) and left striatum (control) [4],"radioactivity accumulated amount in the right striatum, comparison of probes ([4]; FIGS. 2(A) and 2(B))",accumulation in the right striatum to which SNP has been administered (brain fluorescence images) [5]
557,47.04,3.62 10^−3,CN1c2cc(NC3CCC3)ccc2-c2ccc(NC3CCC3)cc2C1c1ccccc1 (stereo not drawn) [Cyclobutyl form],18,almost no intercalation into DNA occurred,575,almost no intercalation into DNA occurred,1.62,,,
559,118.8,8.48 10^−3,CC(C)N(c1ccc2c(c1)C(c1ccccc1)N(C)c1cc(N(C(C)C)C(C)C)ccc1-2)C(C)C (stereo not drawn) [Di-isopropyl form],4,almost no intercalation into DNA occurred,563,almost no intercalation into DNA occurred,0.759,,,
517,568.8,40.6 10^−3,CC(C)Nc1ccc2c(c1)C(c1ccccc1)N(C)c1cc(NC(C)C)ccc1-2 (stereo not drawn) [Isopropyl form],8,almost no intercalation into DNA occurred,525,almost no intercalation into DNA occurred,0.996,,,
,,,"[11CH3]N1c2cc(N)ccc2-c2ccc(N)cc2C1c1ccccc1 (stereo not drawn) [[^11C]HM, reference compound]",,,,,,about 3 times,,
,,,CN1c2cc(N)ccc2-c2ccc(N)cc2C1c1ccc([18F])cc1 (stereo not drawn) [[^18F]FHM],,,,,,about 5 times,larger in [^18F]FHM than in [^11C]HM,
,,,CC(C)Nc1ccc2c(c1)C(c1ccc(F)cc1)N(C)c1cc(NC(C)C)ccc1-2 (stereo not drawn) [isopropyl reduced component],,,,,,,,a large amount of accumulation in the right striatum

Compound,DNA0: Absorption wavelength when DNA concentration was 0 μg/mL (bovine thymus DNA [1]) [nm],ε · ϕ (molar absorption coefficient x quantum yield) [2],ϕ: quantum yield [2],Absorption wavelength difference (bovine thymus DNA [1]) [nm],intercalation into DNA judged from absorption wavelength shift (bovine thymus DNA [1]),DNA30: Absorption wavelength when DNA concentration was 30 μg/mL (bovine thymus DNA [1]) [nm],intercalation into DNA judged from fluorescence intensity (bovine thymus DNA [3]),Fluorescence intensity ratio (DNA20/DNA0) (bovine thymus DNA [3]),ratio of radioactivity accumulated amount (SUV) between right striatum (SNP) and left striatum (control) [4],"radioactivity accumulated amount in the right striatum, comparison of probes ([4]; FIGS. 2(A) and 2(B))",accumulation in the right striatum to which SNP has been administered (brain fluorescence images) [5]
"C[n+]1c(-c2ccccc2)c2cc(N)ccc2c2ccc(N)cc21 [Methidium, reference compound]",481,97.34,2.68 10^−3,40,intercalation into DNA occurred,521,intercalation into DNA occurred,3.03,,,
